Numbers after ± are expanded uncertainties.
Test: mn = molality of the nth substance listed, in mol/kg
Conditions: 101 kPa, Liquid; for mass density: Vibrating tube method; for electrical conductivity: Wheatstone bridge equipment

## C[N+](C)(C)CCCl.[Cl-] [2-chloro-N,N,N-trimethylethanaminium chloride] + O
278.15 K, m1 = 0.0506
  mass density: 1001.45 ± 0.23 kg/m3
278.15 K, m1 = 0.1009
  mass density: 1002.89 ± 0.24 kg/m3
278.15 K, m1 = 0.2364
  mass density: 1006.79 ± 0.25 kg/m3
278.15 K, m1 = 0.501
  mass density: 1013.92 ± 0.28 kg/m3
278.15 K, m1 = 0.6523
  mass density: 1017.88 ± 0.29 kg/m3
278.15 K, m1 = 0.7529
  mass density: 1020.46 ± 0.3 kg/m3
278.15 K, m1 = 1.2
  mass density: 1031.18 ± 0.35 kg/m3
278.15 K, m1 = 1.497
  mass density: 1038.13 ± 0.37 kg/m3
278.15 K, m1 = 1.986
  mass density: 1048.24 ± 0.42 kg/m3
278.15 K, m1 = 0.0236
  viscosity: 1.526 ± 0.048 mPa·s
278.15 K, m1 = 0.0464
  viscosity: 1.536 ± 0.049 mPa·s
278.15 K, m1 = 0.0994
  viscosity: 1.555 ± 0.049 mPa·s
278.15 K, m1 = 0.2464
  viscosity: 1.61 ± 0.051 mPa·s
278.15 K, m1 = 0.3552
  viscosity: 1.656 ± 0.052 mPa·s
278.15 K, m1 = 0.499
  viscosity: 1.712 ± 0.054 mPa·s
278.15 K, m1 = 0.6479
  viscosity: 1.778 ± 0.056 mPa·s
278.15 K, m1 = 0.7493
  viscosity: 1.815 ± 0.057 mPa·s
278.15 K, m1 = 0.9041
  viscosity: 1.914 ± 0.061 mPa·s
278.15 K, m1 = 0.9927
  viscosity: 1.933 ± 0.061 mPa·s
278.15 K, m1 = 1.176
  viscosity: 2.01 ± 0.064 mPa·s
278.15 K, m1 = 1.542
  viscosity: 2.298 ± 0.073 mPa·s
278.15 K, m1 = 2.148
  viscosity: 2.612 ± 0.083 mPa·s
288.15 K, m1 = 0.0506
  mass density: 1000.52 ± 0.23 kg/m3
288.15 K, m1 = 0.1009
  mass density: 1001.9 ± 0.24 kg/m3
288.15 K, m1 = 0.2364
  mass density: 1005.65 ± 0.25 kg/m3
288.15 K, m1 = 0.501
  mass density: 1012.48 ± 0.27 kg/m3
288.15 K, m1 = 0.6523
  mass density: 1016.28 ± 0.29 kg/m3
288.15 K, m1 = 0.7529
  mass density: 1018.75 ± 0.3 kg/m3
288.15 K, m1 = 1.2
  mass density: 1029.02 ± 0.34 kg/m3
288.15 K, m1 = 1.497
  mass density: 1035.68 ± 0.37 kg/m3
288.15 K, m1 = 1.986
  mass density: 1045.39 ± 0.41 kg/m3
288.15 K, m1 = 0.0236
  viscosity: 1.148 ± 0.036 mPa·s
288.15 K, m1 = 0.0464
  viscosity: 1.156 ± 0.037 mPa·s
288.15 K, m1 = 0.0994
  viscosity: 1.172 ± 0.037 mPa·s
288.15 K, m1 = 0.2464
  viscosity: 1.211 ± 0.038 mPa·s
288.15 K, m1 = 0.3552
  viscosity: 1.241 ± 0.039 mPa·s
288.15 K, m1 = 0.499
  viscosity: 1.286 ± 0.041 mPa·s
288.15 K, m1 = 0.6479
  viscosity: 1.335 ± 0.042 mPa·s
288.15 K, m1 = 0.7493
  viscosity: 1.362 ± 0.043 mPa·s
288.15 K, m1 = 0.9041
  viscosity: 1.433 ± 0.045 mPa·s
288.15 K, m1 = 0.9927
  viscosity: 1.447 ± 0.046 mPa·s
288.15 K, m1 = 1.176
  viscosity: 1.502 ± 0.048 mPa·s
288.15 K, m1 = 1.542
  viscosity: 1.708 ± 0.054 mPa·s
288.15 K, m1 = 2.148
  viscosity: 1.932 ± 0.062 mPa·s
298.15 K, m1 = 0.0506
  mass density: 998.426 ± 0.23 kg/m3
298.15 K, m1 = 0.1009
  mass density: 999.762 ± 0.23 kg/m3
298.15 K, m1 = 0.2364
  mass density: 1003.4 ± 0.25 kg/m3
298.15 K, m1 = 0.501
  mass density: 1010.02 ± 0.27 kg/m3
298.15 K, m1 = 0.6523
  mass density: 1013.7 ± 0.29 kg/m3
298.15 K, m1 = 0.7529
  mass density: 1016.09 ± 0.29 kg/m3
298.15 K, m1 = 1.2
  mass density: 1026.04 ± 0.34 kg/m3
298.15 K, m1 = 1.497
  mass density: 1032.48 ± 0.36 kg/m3
298.15 K, m1 = 1.986
  mass density: 1041.87 ± 0.41 kg/m3
298.15 K, m1 = 0.0277
  electrical conductivity: 0.265 ± 0.003 S/m
298.15 K, m1 = 0.0514
  electrical conductivity: 0.49 ± 0.005 S/m
298.15 K, m1 = 0.1003
  electrical conductivity: 0.898 ± 0.009 S/m
298.15 K, m1 = 0.2497
  electrical conductivity: 1.97 ± 0.02 S/m
298.15 K, m1 = 0.3502
  electrical conductivity: 2.58 ± 0.03 S/m
298.15 K, m1 = 0.5001
  electrical conductivity: 3.36 ± 0.04 S/m
298.15 K, m1 = 0.6509
  electrical conductivity: 4.1 ± 0.04 S/m
298.15 K, m1 = 0.7498
  electrical conductivity: 4.51 ± 0.05 S/m
298.15 K, m1 = 0.8997
  electrical conductivity: 5.07 ± 0.05 S/m
298.15 K, m1 = 0.9998
  electrical conductivity: 5.42 ± 0.06 S/m
298.15 K, m1 = 1.212
  electrical conductivity: 6.08 ± 0.06 S/m
298.15 K, m1 = 1.507
  electrical conductivity: 6.81 ± 0.07 S/m
298.15 K, m1 = 1.998
  electrical conductivity: 7.67 ± 0.08 S/m
298.15 K, m1 = 0.0236
  viscosity: 0.907 ± 0.029 mPa·s
298.15 K, m1 = 0.0464
  viscosity: 0.913 ± 0.029 mPa·s
298.15 K, m1 = 0.0994
  viscosity: 0.924 ± 0.029 mPa·s
298.15 K, m1 = 0.2464
  viscosity: 0.955 ± 0.03 mPa·s
298.15 K, m1 = 0.3552
  viscosity: 0.977 ± 0.031 mPa·s
298.15 K, m1 = 0.499
  viscosity: 1.012 ± 0.032 mPa·s
298.15 K, m1 = 0.6479
  viscosity: 1.047 ± 0.033 mPa·s
298.15 K, m1 = 0.7493
  viscosity: 1.069 ± 0.034 mPa·s
298.15 K, m1 = 0.9041
  viscosity: 1.124 ± 0.036 mPa·s
298.15 K, m1 = 0.9927
  viscosity: 1.133 ± 0.036 mPa·s
298.15 K, m1 = 1.176
  viscosity: 1.173 ± 0.037 mPa·s
298.15 K, m1 = 1.542
  viscosity: 1.292 ± 0.041 mPa·s
298.15 K, m1 = 2.148
  viscosity: 1.493 ± 0.048 mPa·s
308.15 K, m1 = 0.0506
  mass density: 995.387 ± 0.23 kg/m3
308.15 K, m1 = 0.1009
  mass density: 996.694 ± 0.23 kg/m3
308.15 K, m1 = 0.2364
  mass density: 1000.25 ± 0.24 kg/m3
308.15 K, m1 = 0.501
  mass density: 1006.72 ± 0.27 kg/m3
308.15 K, m1 = 0.6523
  mass density: 1010.32 ± 0.28 kg/m3
308.15 K, m1 = 0.7529
  mass density: 1012.65 ± 0.29 kg/m3
308.15 K, m1 = 1.2
  mass density: 1022.36 ± 0.34 kg/m3
308.15 K, m1 = 1.497
  mass density: 1028.63 ± 0.36 kg/m3
308.15 K, m1 = 1.986
  mass density: 1037.78 ± 0.4 kg/m3
308.15 K, m1 = 0.0236
  viscosity: 0.711 ± 0.023 mPa·s
308.15 K, m1 = 0.0464
  viscosity: 0.714 ± 0.023 mPa·s
308.15 K, m1 = 0.0994
  viscosity: 0.722 ± 0.023 mPa·s
308.15 K, m1 = 0.2464
  viscosity: 0.757 ± 0.024 mPa·s
308.15 K, m1 = 0.3552
  viscosity: 0.77 ± 0.025 mPa·s
308.15 K, m1 = 0.499
  viscosity: 0.793 ± 0.025 mPa·s
308.15 K, m1 = 0.6479
  viscosity: 0.831 ± 0.026 mPa·s
308.15 K, m1 = 0.7493
  viscosity: 0.833 ± 0.027 mPa·s
308.15 K, m1 = 0.9041
  viscosity: 0.879 ± 0.028 mPa·s
308.15 K, m1 = 0.9927
  viscosity: 0.89 ± 0.028 mPa·s
308.15 K, m1 = 1.176
  viscosity: 0.915 ± 0.029 mPa·s
308.15 K, m1 = 1.542
  viscosity: 1.005 ± 0.032 mPa·s
308.15 K, m1 = 2.148
  viscosity: 1.158 ± 0.037 mPa·s
318.15 K, m1 = 0.0506
  mass density: 991.452 ± 0.23 kg/m3
318.15 K, m1 = 0.1009
  mass density: 992.837 ± 0.23 kg/m3
318.15 K, m1 = 0.2364
  mass density: 996.273 ± 0.24 kg/m3
318.15 K, m1 = 0.501
  mass density: 1002.68 ± 0.27 kg/m3
318.15 K, m1 = 0.6523
  mass density: 1006.2 ± 0.28 kg/m3
318.15 K, m1 = 0.7529
  mass density: 1008.52 ± 0.29 kg/m3
318.15 K, m1 = 1.2
  mass density: 1018.06 ± 0.33 kg/m3
318.15 K, m1 = 1.497
  mass density: 1024.21 ± 0.35 kg/m3
318.15 K, m1 = 1.986
  mass density: 1033.17 ± 0.4 kg/m3
318.15 K, m1 = 0.0236
  viscosity: 0.596 ± 0.019 mPa·s
318.15 K, m1 = 0.0464
  viscosity: 0.595 ± 0.019 mPa·s
318.15 K, m1 = 0.0994
  viscosity: 0.602 ± 0.019 mPa·s
318.15 K, m1 = 0.2464
  viscosity: 0.645 ± 0.021 mPa·s
318.15 K, m1 = 0.3552
  viscosity: 0.66 ± 0.021 mPa·s
318.15 K, m1 = 0.499
  viscosity: 0.661 ± 0.021 mPa·s
318.15 K, m1 = 0.6479
  viscosity: 0.694 ± 0.022 mPa·s
318.15 K, m1 = 0.7493
  viscosity: 0.691 ± 0.022 mPa·s
318.15 K, m1 = 0.9041
  viscosity: 0.733 ± 0.023 mPa·s
318.15 K, m1 = 0.9927
  viscosity: 0.75 ± 0.024 mPa·s
318.15 K, m1 = 1.176
  viscosity: 0.759 ± 0.024 mPa·s
318.15 K, m1 = 1.542
  viscosity: 0.835 ± 0.027 mPa·s
318.15 K, m1 = 2.148
  viscosity: 0.948 ± 0.03 mPa·s

From the NIST ThermoML archive (doi:10.1021/je200856f)
